Data reported in article PMC6584507 (Scientific Reports, 2019).
Converted amounts (≈) assume the structure as drawn.

Tests used:
[1] = molecular target: T1, FLAG-tagged hTSLP bound to His-tagged hTSLPR (Homo sapiens, UniProt Q969D9); assay: Pull-down assay, His-tagged hTSLPR and FLAG-tagged hTSLP, Western blotting; type: binding; settings: compound at 0, 10, 50 and 100 μM
T1 construct: human TSLP28–159 with thrombin cleavage site at C-terminus; thrombin cleavage site (C); 8xHis (from vector pAB-bee-8xHis) (C, cleaved yes); made in house; host or cells: Trichoplusia ni High-Five cells, baculovirus (secreted)
T1 sequence (Q969D9 28-159): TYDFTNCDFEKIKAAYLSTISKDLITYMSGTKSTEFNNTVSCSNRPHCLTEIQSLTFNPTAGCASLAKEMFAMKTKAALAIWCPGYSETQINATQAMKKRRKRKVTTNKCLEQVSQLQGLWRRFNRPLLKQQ

[2] = test system: STAT5 phosphorylation in hTSLP-stimulated HMC-1 cells; assay: STAT5 assay (STAT5 phosphorylation, flow cytometry); type: cell-based, human
Method: (§1) HMC-1 cells were obtained from the Department of Food Technology and Inflammatory Disease Research Center (Hoseo University, Asan, Chungnam, Korea). Cells were cultured in Iscove’s modified Dulbecco’s medium (IMDM; Hyclone Laboratories Inc, USA) supplemented with 10% FBS and 1% Penicillin-streptomycin (PS; Gibco Industries Inc, USA) and incubated at 37 °C under humidified atmosphere of 95% air and 5% CO2. Recombinant hTSLP was purchased from R&D Systems (Minneapolis, USA).
Intracellular phospho-STAT5 (pSTAT5) staining method was based on the protocol obtained from the laboratory of Susan Kaech, Department of Immunobiology, Yale University School of Medicine (New Haven, Connecticut, USA). Briefly, HMC-1 cells were seeded in 96-well U-bottom plate at a density of 1 × 10^7 cells/mL and stimulated with 100 ng/mL recombinant hTSLP alone or with 1 for 30 min. After stimulation, cells were fixed with BD Cytofix/Cytoperm (BD Biosciences, USA) solution for 10 min. Fixed cells were then permeabilized with ice-cold methanol for 30 min, and intracellular pSTAT5 was stained with Alexa Fluor 647 mouse anti-STAT5 (pY694; BD Biosciences, USA) (1:10 dilution in FACS buffer) for 30 min. Stained cells were further fixed with BD Cytofix/Cytoperm solution for 10 min and re-suspended in FACS buffer for flow cytometry analysis. Cells were analyzed by a BD LSR Fortessa Flow cytometry (BD Biosciences, USA). FACS data were analyzed using FlowJo software Ver 9. 7. 6 (Tree Star Inc., USA).

[3] = test system: pSTAT5 in TSLP-stimulated HMC-1 cells; assay: Western blot analysis of STAT5 phosphorylation; type: cell-based, human; settings: TSLP 20 ng/mL for 2 h
Method: as §1
[…] Activated cells were lysed and separated by 10% sodium dodecyl sulfate-polyacrylamide gel electrophoresis (SDS-PAGE). After electrophoresis, proteins were transferred to nitrocellulose membranes. The membranes were blocked, incubated with primary antibodies (1:700 dilution in PBS with 0.05% Tween-20), and developed using peroxidase-conjugated secondary antibodies (1:3000 dilution in PBS with 0.05% Tween-20). Proteins were visualized by enhanced chemiluminescence (Amersham Bioseciences, Piscataway, NJ, USA) according to the manufacturer’s instructions.

[4] = Kinetic aqueous solubility; type: physicochemical; settings: 0.1 M potassium phosphate buffer, kinetic from dmso stock, PBS / phosphate buffer pH 7.4
Method: In brief, 10 mM stock solution of tested compounds was prepared in DMSO. 25 μL of the stock solution was added to a 1-mL uniprep vial containing 475 μL of 0.1 M potassium phosphate buffer (pH 7.4), and was shaken at 800 rpm for 90 min at room temperature. Following shaking, the mixture was filtered by slowly pressing the upper tube of the 1 mL Mini-Uniprep^TM filter (PTFE membrane, 0.45 μm). 250 μL of the filtrate solution was then transferred to a HPLC vial containing equal volume of acetonitrile.

[5] = test system: HDM-challenged mice; assay: HDM-induced mouse model of allergic airway inflammation; type: in vivo; settings: 1 (200 μg/mL) on day 4, 6 and 8; analysis on day 11
Method: Approximately 1 × 10^6 CD4 T cells from DO11.10 mice were transferred to naïve BALB/c mice intravenously. The following day, mice were challenged with a mixture of HDM (50 μg of Dermatophagoides farinae and Dermatophagoides pteronyssinus each; Greer Laboratories, Inc., USA) and 100 μg of OVA (Sigma-Aldrich Co., USA) for three days via the intranasal route. Mice were treated with 1 (200 μg) or PBS intraperitoneally three times every other day starting from […] post-challenge based on previous report. Allergen-challenged mice were sacrificed on day 11 post-challenge. […] The total cell number was counted using a hemocytometer. Leukocytes were transferred to glass slides by Cytospin (Thermo Scientific, USA) at 2,800 rpm for 5 min, and stained with Diff-Quick staining (Sysmex Corporation, Japan). Flow cytometry analysis: […] Cells were stained with anti-CD4 FITC (RM4-5, Biolegend Inc., USA), anti-CD127 PE/Cy7 (A7R34, Biolegend Inc., USA), anti-CD62L APC/Cy7 (MEL14, Biolegend Inc., USA), anti-CD27 PE (LG.7F9, eBioscience Inc., USA), and anti-DO11.10APC (KJ1-26, eBioscience Inc., USA) antibodies for 30 min. Stained cells were examined by flow cytometry using LSR Fortessa ^TM. Data were analyzed using FlowJo software Ver 9.7.6.

[6] = test system: OVA-sensitized and challenged mice; assay: OVA-induced mouse model of allergic airway inflammation; type: in vivo
Method: Sensitization and airway challenge: For initial sensitization, BALB/c mice were administered intraperitoneally on day 0 with 20 μg of OVA emulsified in 200 μL of sterile PBS containing 1 mg of aluminum hydroxide adjuvant (Imject® Alum, Thermofisher, Korea). On day 14, the mice were boosted with the same allergen by IP injection. […] The mice were sacrificed at the indicated time points and BAL was performed. […] The control group received vehicle only. BAL: Immediately after sacrifice, lungs were lavaged as described above. Total leukocyte numbers were counted. Differential cell counts were performed by counting at least 200 cells on cytocentrifuged samples stained with Diff-Quick solution.

[7] = molecular target: T2, hTSLP (Homo sapiens, UniProt Q969D9); assay: 1D and CPMG relaxation-edited NMR ligand binding; settings: 1 at 100 μM, PBS buffer condition
T2 construct: human TSLP28–159 with thrombin cleavage site at C-terminus; thrombin cleavage site (C); 8xHis (from vector pAB-bee-8xHis) (C, cleaved yes); made in house; host or cells: Trichoplusia ni High-Five cells, baculovirus (secreted)
T2 sequence (Q969D9 28-159): as above

[8] = test system: carbonic anhydrase; assay: 1D and CPMG relaxation-edited NMR ligand binding; settings: 1 at 100 μM, 2.5 μM carbonic anhydrase
Method: (§2) All spectra were measured at 283, 291, and 298 K. Data processing and analysis were conducted using TopSpin 3.1 program (Bruker, Germany). One-dimensional (1D) relaxation-edited experiments were performed using the method previously described by Hadjuk et al.[23]. We used CPMG pulse train with a pre-acquisition delay of 1.8 s, a 2 ms delay for dephasing and rephrasing in spin echo, and a total spin-lock time of 400 ms. The data were collected using a spectral width of 9,615 Hz and 128 scans.

[9] = molecular target: T3, hTSLPR (Homo sapiens, UniProt Q9HC73); assay: 1D and CPMG relaxation-edited NMR ligand binding; settings: 1 at 100 μM, 2.5 μM hTSLPR
T3 construct: human TSLPR26–217 with C-terminal octa-histidine tag (hTSLPR-His); 8xHis (C); made in house; host or cells: Trichoplusia ni High-Five cells, baculovirus (secreted)
T3 sequence (Q9HC73 26-217): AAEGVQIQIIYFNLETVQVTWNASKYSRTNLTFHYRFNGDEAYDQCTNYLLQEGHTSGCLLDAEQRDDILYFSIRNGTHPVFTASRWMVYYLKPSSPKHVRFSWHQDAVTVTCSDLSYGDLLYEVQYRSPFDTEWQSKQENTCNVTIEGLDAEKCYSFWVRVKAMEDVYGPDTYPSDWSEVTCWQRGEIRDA
Method: as §2

[10] = test system: ovalbumin (OVA)-treated mice; settings: cited from earlier work
[11] = test system: house dust mite (HDM)-challenged mice; settings: cited from earlier work
[12] = molecular target: T4, hTSLP/hTSLPR interaction (Homo sapiens, UniProt Q969D9); assay: ELISA of hTSLP/hTSLPR interaction (FLAG-hTSLP, hTSLPR-His); type: binding; settings: for inhibition at 300 µM: 0.3 mM, read-out: % inhibition (hTSLP-inhibitory activity by ELISA);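 for all read-outs here: His-tagged hTSLPR captured on Ni-NTA plates, compounds plus FLAG-hTSLP incubated 18 h at 4 °C, bound ligand detected with HRP anti-FLAG, OD 450 nm relative to control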
T4 construct: human TSLP28–159 with thrombin cleavage site at C-terminus; thrombin cleavage site (C); 8xHis (from vector pAB-bee-8xHis) (C, cleaved yes); made in house; host or cells: Trichoplusia ni High-Five cells, baculovirus (secreted)
T4 sequence (Q969D9 28-159): as the sequence (Q969D9 28-159) above

| SMILES | STAT5 phosphorylation % ([2]; 3 µM) [%] | STAT5 phosphorylation % ([2]; 10 μM) [%] | inhibition of STAT5 phosphorylation, Western blot (in words) ([3]; HMC-1 cells pretreated) | solubility kinetic at 90 min [4] [µM] | IC50 [12] [µM] | inhibition at 300 µM [12] [%] | other results |
| --- | --- | --- | --- | --- | --- | --- | --- |
| O=c1cc(-c2ccccc2)oc2cc(O)c(O)c(O)c12 [Compound 1, baicalein] | 65.7 | 61.6 | dose-dependent inhibition | 62 (≈ 16.8 µg/mL) |  |  | amount of FLAG-tagged hTSLP bound to His-tagged hTSLPR [1]: reduced in a dose-dependent manner; hTSLP inhibitory activity in the in vitro STAT5 assay (in words) ([2]; HMC-1 cells, hTSLP 100 ng/mL, 30 min, compound 1 at 3 or 10 μM): inhibited; number of allergen-specific T cells [5]: not changed; number of eosinophils in BALF vs PBS-treated control [5]: substantially reduced; total number of leukocytes in BALF vs PBS control [5]: comparable; number of eosinophils recruited to the airways ([6]; 100 mg/kg IP, BALF 48 h): significantly reduced; eosinophil numbers in BALF over time ([6]; 100 mg/kg IP, as early as 24 h post injection, up to 72 h): decreased; inhibition of airway inflammation ([6]; single IP administration, 10, 50 or 100 mg/kg, BALF 48 h): dose-dependent manner; 1D NMR signals of the compound in the presence of the protein [7]: significantly broadened; 1D NMR signals of the compound in the presence of the protein [8]: no signal broadening; 1D NMR signals of the compound in the presence of the protein [9]: no signal broadening; airway inflammation [10]: reduce; skin severity scores [11]: lower |
| O=c1cc(-c2cccc(-c3ccccc3)c2)oc2cc(O)c(O)cc12 [Compound 10e, 2-([1,1′-Biphenyl]-3-yl)-6,7-dihydroxy-4H-chromen-4-one] |  |  | stronger than compound 1 |  | 177 | > 50 |  |
| O=c1cc(-c2cccc(-c3ccc(O)cc3)c2)oc2cc(O)c(O)cc12 [Compound 10g, 6,7-Dihydroxy-2-(4′-hydroxy-[1,1′-biphenyl]-3-yl)-4H-chromen-4-one] |  |  | stronger than compound 1 |  | 210 | > 50 |  |
| O=C1CC(c2cccc(-c3ccc(O)cc3)c2)Oc2cc(O)cc(O)c21 (stereo not shown) [Compound 11a, 5,7-Dihydroxy-2-(4′-hydroxy-[1,1′-biphenyl]-3-yl)chroman-4-one] |  |  |  | 66 (≈ 23 µg/mL) | 370 |  | inhibition of STAT5 phosphorylation, Western blot (in words) ([3]; even at 0.01 μM, HMC-1 cells): strongly inhibited |
| O=C(O)[C@H]1O[C@@H](Oc2cc3oc(-c4ccccc4)cc(=O)c3c(O)c2O)[C@H](O)[C@@H](O)[C@@H]1O [KUP-040, baicalin] | 69.7 | 68.8 |  |  |  |  |  |
